Experimental data reported in US9108944B2, “Androgen receptor modulators and uses thereof” (ARAGON PHARMACEUTICALS, INC., priority 2010, dated 2015).

Tests used:
AR-VP16 [1] = biological target: T1, AR-VP16 (Homo sapiens, UniProt P10275); assay: AR-VP16 DNA Binding Assay, agonist mode (HepG2 cells); format: cell-based; details: Emax >20x DMSO control = agonist
T1 sequence (P10275 560-920 limits assumed): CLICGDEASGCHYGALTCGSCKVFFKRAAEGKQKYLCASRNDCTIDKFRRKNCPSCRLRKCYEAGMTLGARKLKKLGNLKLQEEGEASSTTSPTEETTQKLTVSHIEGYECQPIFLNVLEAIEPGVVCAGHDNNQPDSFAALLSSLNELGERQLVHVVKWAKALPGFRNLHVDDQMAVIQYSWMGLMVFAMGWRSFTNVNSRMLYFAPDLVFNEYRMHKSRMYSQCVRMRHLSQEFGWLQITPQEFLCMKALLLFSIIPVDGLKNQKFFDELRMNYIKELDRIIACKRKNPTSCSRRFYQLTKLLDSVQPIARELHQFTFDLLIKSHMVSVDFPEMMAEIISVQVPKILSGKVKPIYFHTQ

AR-VP16 [2] = biological target: T1, AR-VP16; assay: AR-VP16 DNA Binding Assay, antagonist mode (HepG2 cells, 0.1 nM R1881); format: cell-based
Outline: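 HepG2 cells transiently transfected with AR-VP16 (Lipofectin), incubated overnight, then treated with compound in RPMI with charcoal-stripped serum. Antagonist mode adds R1881 at 0.1 nM final. Cells lysed after 48 h incubation for read-out.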

Row | Compound | ARVP16 DNA Binding Assay (Agonist mode): Agonist? (AR-VP16 [1]) | IC50 (AR-VP16 [2])
1 | N#Cc1ncc(N2C(=O)C3(CCC3)N(c3ccc(OCCc4cccc5ccccc45)c(F)c3)C2=S)cc1C(F)(F)F [Compound 140, 5-(5-(3-Fluoro-4-(2-(naphthalen-1-yl)ethoxy)phenyl)-8-oxo-6-thioxo-5,7-diazaspiro[3.4]octan-7-yl)-3-(trifluoromethyl)picolinonitrile] | No (Agonist defined as a compound whose Emax in the ARVP16 DNA Binding Assay (Agonist mode) is >20x DMSO control) | > 1 µM
2 | CCOC(=O)CN1CCC(Oc2ccc(N3C(=S)N(c4cnc(C#N)c(C(F)(F)F)c4)C(=O)C34CCC4)cc2)CC1 [Compound 221, Ethyl 2-(4-(4-(7-(6-cyano-5-(trifluoromethyl)pyridin-3-yl)-8-oxo-6-thioxo-5,7-diazaspiro[3.4]octan-5-yl)phenoxy)piperidin-1-yl)acetate] | No (Agonist defined as a compound whose Emax in the ARVP16 DNA Binding Assay (Agonist mode) is >20x DMSO control) | > 1 µM
3 | N#Cc1ncc(N2C(=O)C3(CCC3)N(c3ccccc3CO)C2=S)cc1C(F)(F)F [Compound 68, 5-(5-(2-(Hydroxymethyl)phenyl)-8-oxo-6-thioxo-5,7-diazaspiro[3.4]octan-7-yl)-3-(trifluoromethyl)picolinonitrile] | No (Agonist defined as a compound whose Emax in the ARVP16 DNA Binding Assay (Agonist mode) is >20x DMSO control) | > 1 µM
4 | N#Cc1ncc(N2C(=O)C3(CCC3)N(c3ccc(C(=O)NCC4CCCC4)c(F)c3)C2=S)cc1C(F)(F)F [Compound 283, 4-(7-(6-Cyano-5-(trifluoromethyl)pyridin-3-yl)-8-oxo-6-thioxo-5,7-diazaspiro[3.4]octan-5-yl)-N-(cyclopentylmethyl)-2-fluorobenzamide] | No (Agonist defined as a compound whose Emax in the ARVP16 DNA Binding Assay (Agonist mode) is >20x DMSO control) | < 1 µM
5 | COCCOc1ccc(N2C(=S)N(c3cnc(C#N)c(C(F)(F)F)c3)C(=O)C23CCC3)cc1F [Compound 131, 5-(5-(3-Fluoro-4-(2-methoxyethoxy)phenyl)-8-oxo-6-thioxo-5,7-diazaspiro[3.4]octan-7-yl)-3-(trifluoromethyl)picolinonitrile] | No (Agonist defined as a compound whose Emax in the ARVP16 DNA Binding Assay (Agonist mode) is >20x DMSO control) | < 1 µM
6 | CN1CCN(CCOc2ccc(N3C(=S)N(c4cnc(C#N)c(C(F)(F)F)c4)C(=O)C34CCC4)cc2F)CC1 [Compound 149, 5-(5-(3-Fluoro-4-(2-(4-methylpiperazin-1-yl)ethoxy)phenyl)-8-oxo-6-thioxo-5,7-diazaspiro[3.4]octan-7-yl)-3-(trifluoromethyl)picolinonitrile] | No (Agonist defined as a compound whose Emax in the ARVP16 DNA Binding Assay (Agonist mode) is >20x DMSO control) | < 1 µM
7 | N#Cc1ncc(N2C(=O)C3(CCC3)N(c3ccc(OCCc4cccnc4)c(F)c3)C2=S)cc1C(F)(F)F [Compound 144, 5-(5-(3-Fluoro-4-(2-(pyridin-3-yl)ethoxy)phenyl)-8-oxo-6-thioxo-5,7-diazaspiro[3.4]octan-7-yl)-3-(trifluoromethyl)picolinonitrile] | Yes (Agonist defined as a compound whose Emax in the ARVP16 DNA Binding Assay (Agonist mode) is >20x DMSO control) | < 1 µM
8 | Cc1ccc(N2C(=S)N(c3cnc(C#N)c(C(F)(F)F)c3)C(=O)C2(C)C)cc1 [Compound 33, 5-(4,4-Dimethyl-5-oxo-2-thioxo-3-(p-tolyl)imidazolidin-1-yl)-3-(trifluoromethyl)picolinonitrile] | No (Agonist defined as a compound whose Emax in the ARVP16 DNA Binding Assay (Agonist mode) is >20x DMSO control) | < 1 µM
